# US6423739B1, “Method for aiding cerebral recovery following neurodegeneration” (Daiichi Pharmaceutical Co., Ltd., priority 2000, dated 2002)
# Tests used:
# [1] = test system: rats with cerebral embolism; test: Watermaze spatial learning and retention test in rats with cerebral embolism; assay type: in vivo, rat
# Excerpt: The mechanism of action of nefiracetam for this indication, which is not bound to the nootropic activity of the drug, is unknown, but it is believed that its surprising effect in improving ADL of a patient after a stroke or in the recovery of, or at least in improving the recovery of, a post-stroke patient, is due to a true brain repair. This assumption is confirmed by the effect of nefiracetam on spatial learning and retention in rats with cerebral embolism, treated for 9 days with nefiracetam or vehicle, starting within 24 hours of embolization.
# In male Wistar rats weighing 190-220 g a total of 700 microspheres (48 μm in diameter) were injected into the right common carotid artery of each animal, whereby a quasi-immediate embolism occurs. The embolized animals were randomly divided into 2 groups, each of 13 animals with same neurological deficit, designated as “Control” (embolism plus Vehicle), or “Nefiracetam” (embolism plus nefiracetam 10 mg/kg/day). In addition, a group of 13 “Normal (Sham)” non-embolized animals were used. The administration of nefiracetam or of its vehicle started within the same day of embolization and treatment lasted 9 days. Seven days after embolization, the embolized rats were submitted to a watermaze test, said watermaze being adapted from the Morris water task. The time taken to find the platform (latency) was determined. […]
# [2] = test system: post-stroke patients; test: Controlled clinical trial against placebo, symptom scale measuring Activities of Daily Living; assay type: in vivo, human
# Excerpt: The activity of nefiracetam to improve ADL in post-stroke patients has been discovered during a controlled clinical trial against placebo. The compound has been administered orally to 32 post-stroke patients within six months after the event whilst, concurrently, 27 patients received placebo. The two groups of patients were followed during at least 8 weeks and followed up at the end of week 4 and at the end of week 8 on a symptom scale measuring Activities of Daily Living. […] Among the above 59 patients, 19 received nefiracetam and 10 received placebo within three months after stroke. […] The difference was significant (p=0.035, χ^2 test). […] Thus nefiracetam, when administered early after the event, appears to be the first drug which is able to induce a recovery from stroke or, at least, to improve the recovery from stroke.
# [3] = test system: hippocampal and cortical rat embryo neurons; test: Neurite outgrowth in primary cultures of hippocampal and cortical rat embryo neurons; assay type: cell-based
# [4] = test system: patients after a stroke (cerebral infarction or cerebral hemorrhage); conditions: post-stroke patients, Ohtomo et al. 1994; cited from earlier work
compound,measurement,setting,value
"Cc1cccc(C)c1NC(=O)CN1CCCC1=O [Nefiracetam, N-(2,6-dimethylphenyl)-2-(2-oxo-1-pyrrolidinyl)acetamide]",Persistence of the effect after washout,[1]; day 17 after embolization,maintained even after washout
same,Difference in learning ability versus vehicle-treated (control) brain-injured animals,"[1]; days 7-9 post-embolism, t-test, p<0.05 compared to control",statistically significant
same,Patients showing a moderate or remarkable improvement (Activities of Daily Living),"[2]; 19 patients who received nefiracetam within three months after stroke, p=0.035 vs placebo, chi2 test",~70%
same,Intellectual dysfunction,[2]; early treatment after stroke,dramatically improved in a high percent of nefiracetam-treated patients
same,Neurological signs and incontinence,[2]; early treatment after stroke,tends to improve
same,Improvement on symptom scale measuring Activities of Daily Living,"[2]; oral, 32 post-stroke patients treated within six months after the event, followed at week 4 and week 8",moderate or remarkable improvement
same,Neurotrophic effect: neurite outgrowth,"[3]; concentrations of 0.1, 1, 10 and 100 micromoles/l",significantly increasing neurite outgrowth
same,Neurotrophic effect in combination with bFGF,[3]; hippocampal neurons,potentiated by bFGF
same,"Activities of daily living, nefiracetam vs placebo group",[4],no significant difference between the two groups
